# Patent US10889844B2, “Methods of degrading or hydrolyzing a polysaccharide” (Novozymes A/S, priority 2010, dated 2021)
# “Also recorded” adds a separate entry of the source.
# B1: TaGH61A: GH61 protein (SEQ ID NO: 2), GH61A from T. aurantiacus (protein)
# chain: MSFSKIIATAGVLASASLVAGHGFVQNIVIDGKKYYGGYLVNQYPYMSNPPEVIAWSTTATDLGFVDGTGYQTPDIICHRGAKPGALTAPVSPGGTVELQWTPWPDSHHGPVINYLAPCNGDCSTVDKTQLEFFKIAESGLINDDNPPGIWASDNLIAANNSWTVTIPTTIAPGNYVLRHEIIALHSAQNQDGAQNYPQCINLQVTGGGSDNPAGTLGTALYHDTDPGILINIYQKLSSYIIPGPPLYTG
# modifications: T. aurantiacus
# B2: EfCBM33: family 33 CBM from Enterococcus faecalis (Uniprot ID:Q838S1; SEQ ID NO: 5) (protein, listed as Enterococcus faecalis)
# chain: MKKSLLTIVLAFSFVLGGAALAPTVSEAHGYVASPGSRAFFGSSAGGNLNTNVGRAQWEPQSIEAPKNTFITGKLASAGVSGFEPLDEQTATRWHKTNITTGPLDITWNLTAQHRTASWDYYITKNGWNPNQPLDIKNFDKIASIDGKQEVPNKVVKQTINIPTDRKGYHVIYAVWGIGDTVNAFYQAIDVNIQ
# B3: TtGH61E: GH61 protein from Thielavia terrestris (SEQ ID NO: 1) (protein)
# chain: MLANGAIVFLAAALGVSGHYTWPRVNDGADWQQVRKADNWQDNGYVGDVTSPQIRCFQATPSPAPSVLNTTAGSTVTYWANPDVYHPGPVQFYMARVPDGEDINSWNGDGAVWFKVYEDHPTFGAQLTWPSTGKSSFAVPIPPCIKSGYYLLRAEQIGLHVAQSVGGAQFYISCAQLSVTGGGSTEPPNKVAFPGAYSATDPGILINIYYPVPTSYQNPGPAVFSCMLANGAIVFLAAALGVSGHYTWPRVNDGADWQQVRKADNWQDNGYVGDVTSPQIRCFQATPSPAPSVLNTTAGSTVTYWANPDVYHPGPVQFYMARVPDGEDINSWNGDGAVWFKVYEDHPTFGAQLTWPSTGKSSFAVPIPPCIKSGYYLLRAEQIGLHVAQSVGGAQFYISCAQLSVTGGGSTEPPNKVAFPGAYSATDPGILINIYYPVPTSYQNPGPAVFSC
# modifications: T. terrestris
# Legend:
# Format in all cases: biochemical
# CBP21 [1] = target: T1, CBP21 (Serratia marcescens, UniProt P9WEM3); assay: Reactions under metal chelating conditions: re-activation of metal-free CBP21
# Procedure: Solid lines indicate reactions with metal-free CBP21; dashed lines indicate reactions without CBP21. Half way through the reaction (indicated by the arrow) MgCl2 (final concentration 25 mM), ZnCl2 (25 mM) or buffer was added to one of two (parallel) reaction mixtures. Squares, MgCl2 added; circles, ZnCl2 added; triangles, buffer added.
# Divalent cations were removed by chelation through dialysis of a 10 mg/mL CBP21 solution in a buffer containing 20 mM Tris-HCl and 5 mM EDTA. The protein solution was present in a Slide-A-Lyzer cassette (Pierce) with 10 kDa MW cut-off dialysis membrane. […] For the re-activation experiment, the divalent cations were added to the appropriate reaction solutions immediately after the third sampling (90 minutes).
# Cellic™ CTec2 = assay: Effect of ascorbic acid on glucose release from cellulose by Cellic CTec2 (FIG. 35); details: 0.5 mM ascorbic acid, 24 hours
# [2] = Filter paper degradation by HjCel7A with CelS2 over time (FIG. 26); details: no CelS2 present
# Procedure: By far the major products of these reactions are cellooligosaccharides released by the cellulases (whose activity is boosted by CelS2). In the case of HjCel7A, the main product is cellobiose and formation of this product is shown. RG, indicates the presence of a reductant, in this case reduced glutathione. […] The reactions were run at 50° C.
# [3] = Filter paper cellulose degradation by […] with E7 (FIG. 28); details: 2 mM reduced glutathione
# Procedure: 1 μM of the N-terminal CBM33 domain of CelS2 was incubated with 10 mg/ml AVICEL® in the presence of 0.8 mM of one of the reductants, or in the absence of any reductant. Reactions were run in 50 mM succinate buffer pH 5.5, 1 mM MgCl2, at 50° C. and 900 rpm (vertical agitation) for 20 hours. […] (glucose and cellobiose reported as [Glc]) released after incubation of 0.08 μl/ml […]™ (CC) in the presence or absence of 1 μM E7 and 2 mM reduced glutathione (RG) as external electron donor with 2 mg/ml filter paper cellulose. Reactions were incubated in 20 mM sodium acetate buffer pH 5.5, 1 mM MgCl2, at 50° C. and 900 rpm (horizontal agitation) for up to 50 hours.
# [4] = Time course of filter paper cellulose degradation by […] with CelS2 (FIG. 25); details: 0.5 mM reduced glutathione
# Procedure: In reactions where no CelS2 was present, 40 μg/ml purified BSA was added in order to maintain an identical protein load. […] Data are mean+/−SD (N=3); error bars indicate SD.
# [5] = system: CBP21 (Serratia marcescens); details: CBP21 alone on beta-chitin with reductant; 10 mM sodium dithionite anaerobic or 2.0 mM potassium cyanide
# CBP21 [6] = target: T1, CBP21
# [7] = Cleavage of AVICEL by GH61 proteins in the presence of ascorbic acid (HPAEC, FIG. 34); details: 140 μg/ml GH61 protein, 10 mg/ml AVICEL, 2.4 mM ascorbic acid, pH 6.6, 24 hours
# Description: The two proteins were cloned and produced as described in Harris et al., 2010, supra. […] While the product pattern is similar to that obtained with CBM33s, it is not identical. The patterns typically obtained with CBM33s acting on cellulose in the presence of reductants (FIGS. 19, 22, 27, 30, and 31) show different peridiodicities (i.e., relative abundances of the various products, both oxidized and native oligosaccharides). This may indicate that TtGH61E acts on the substrate in a slightly different way, e.g., by attacking another face of the crystal. Clearly, however, the overall outcome of the reaction of TtGH61E in the presence of the reductant is similar to the outcome of reactions of CBM33s on cellulose in the presence of reductant.
# [8] = EfCBM33 (dissolved crystals) on beta-chitin, MALDI-TOF MS; details: 2.0 mg/ml beta-chitin
# Procedure: (§1) For use in chitin degradation experiments, eight crystals were harvested from a 2 μL drop using a nylon loop and transferred to a 4 μL drop containing the crystallization liquor from the buffer reservoir. The crystals were mixed around in order to “rinse off” potential contaminants. After the first rinse, the crystals were transferred to a new 4 μL drop containing the crystallization liquor for a second rinsing cycle. Finally, all crystals were transferred to and dissolved in a 4 μL drop containing 20 mM Tris-HCl, pH 8.0. The resulting solution was diluted by adding it to a test tube containing 46 μL 20 mM Tris-HCl, pH 8.0. […] Soluble products in the supernatant of the reaction were analyzed by MALDI-TOF, using the same methods as those used for testing the activity of CBP21. Further, the ability of EfCBM33 to boost degradation of alpha-chitin was probed by conducting an experiment where 2.0 mg/ml alpha-chitin (shrimp shells) was incubated with 0.3 μM of the chitinase from Entreococcus feacalis (protein name (EF0361)) in the presence or absence of 0.3 μM EfCBM33 and 1.0 mM reductant (R: reduced glutathione) incubated at 37° C. with agitation at 900 rpm.
# [9] = EfCBM33 boost of alpha-chitin degradation by chitinase EF0361; details: 2.0 mg/ml alpha-chitin, 0.3 μM EF0361, 0.3 μM EfCBM33, 1.0 mM reduced glutathione
# Procedure: as §1
# T1 sequence (P9WEM3 28-197): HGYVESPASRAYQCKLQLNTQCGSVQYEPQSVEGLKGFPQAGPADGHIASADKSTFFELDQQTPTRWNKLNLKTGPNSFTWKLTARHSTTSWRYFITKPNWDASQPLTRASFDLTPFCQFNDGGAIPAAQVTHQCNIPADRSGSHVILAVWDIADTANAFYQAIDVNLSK
# CBP21 (Serratia marcescens), sequence (P9WEM3 28-197): as above
molecule,measurement,setting,value
[Cl-].[Cl-].[Mg+2] [MgCl2],re-activation of metal-free CBP21,CBP21 [1],Re-activation of metal-free CBP21 was achieved
[Cl-].[Cl-].[Zn+2] [ZnCl2],re-activation of metal-free CBP21,CBP21 [1],Re-activation of metal-free CBP21 was achieved
O=C1O[C@H]([C@@H](O)CO)C(O)=C1O [ascorbic acid],increase of the release of glucose,Cellic™ CTec2; AVICEL®,about 30%
same,increase of the release of glucose,Cellic™ CTec2; Filter Paper,about 30%
"N[C@@H](CCC(=O)N[C@@H](CS)C(=O)NCC(=O)O)C(=O)O [reduced glutathione, reference compound]",effect of reductant on Cel7A alone,[2],essentially identical
same,effect of reductant in reactions with only CC,[3],no effect in reactions with only CC
same,effect of reductant in reactions with only CC,[4],no effect in reactions with only CC
"O=S([O-])S(=O)[O-].[Na+].[Na+] [sodium dithionite, Sodium dithionite]",effect on CBP21 generated oxidized products,[5],no detectable amounts of CBP21 generated products
same,effect on the potentiating effect of CBP21 on ChiC,CBP21 [6],abolished
B1,"cleavage of cellulose, oxidized products",[7],much less active than TtGH61E
B2,oxidohydrolytic activity on beta-chitin (soluble products),[8],clearly showing the formation of oxidized products; also recorded: the product spectrum is dominated by even-numbered oxidized chitooligosaccharides
same,boost of chitinase activity on alpha-chitin,[9],A boost of the chitinase activity is clearly observed
B3,"cleavage of cellulose, oxidized products",[7],cuts cellulose producing oxidized and native celluoligosaccharides
